Data published in PMC9268013, “Design, Synthesis, and Biological Evaluation of N14-Amino Acid-Substituted Tetrandrine Derivatives as Potential Antitumor Agents against Human Colorectal Cancer” (Molecules, 2022).

How the values were obtained:
[1] = system: human breast cancer cells (MCF-7); experiment: MTT antiproliferative assay, MCF-7; format: cell-based
Procedure: (§1) Human lung cancer cell (A549,), human umbilical vein endothelial cells (HUVECs,), human colon cancer cell lines (HCT-15), human breast cancer cells (MCF-7), human liver cancer cells (HepG2), human pancreatic cancer cells (BxPC-3), and human hepatic cell line (L-02) were obtained from the Sichuan University. A549, HUVECs, and L-02 were cultured in DMEM medium (high glucose, HyClone, GE Healthcare, Sydney, Australia). Human colon cancer cell lines HCT-15, human pancreatic cancer cells […] BxPC-3 were cultured in RPMI-1640. Human breast cancer cells MCF-7 and human liver cancer cells HepG2 were cultured in MEM medium. All the mediums, including 10% fetal bovine serum (FBS, HyClone, GE Healthcare, Sydney, Australia) and 1% ampicillin/streptomycin, were used to culture the above cells at 37 °C in a humidified atmosphere (5% CO2 and 95% air).
(§2) The antiproliferative activity of the title compounds was determined using the MTT (3-(4,5-dimethylthiazol-2-yl)-2,5-diphenyltetrazolium bromide, Sigma-Aldrich, Saint Louis, MO, USA) assay on different cells. Cells lines were seeded into 96-well plates at a density of 2000 to 6000 cells/well. DMSO was used to dissolve the test compounds, and TET was used as a positive control. After 24 h, the test compounds were added at different concentrations (0.625, 1.25, 2.5, 5, 10, and 20 μM) and incubated at 37 °C for 72 h. MTT was added to each well at a final concentration of 0.5 mg/mL and incubated at 37 °C for 4 h. Then, 150 μL of DMSO was added to each well to dissolve the formazan crystals. The absorbance was measured at 570 nm by a microplate reader (ELX800UV, Bio-Tek, Windoski, VT, USA). All measurements were repeated at least three times under the same conditions. Graphpad Prism 8.0 was used to calculate the IC50 values.

[2] = system: human umbilical vein endothelial cells (HUVEC); experiment: MTT antiproliferative assay, HUVEC; format: cell-based; details: 72 h
Procedure: as §1, §2

[3] = system: HCT-15 cells; experiment: Wound healing (migration) assay, HCT-15; format: cell-based, human; details: 24 h, control approximately 46%
Procedure: HCT-15 cells or HUVECs were seeded in six-well culture plates and allowed to grow to 80–90% confluence. Subsequently, a cell-free line was manually created by scratching the confluent cell monolayers with a 200 μL sterile pipette tip, and the detached cells were washed with PBS. The cells were then incubated with 10% FBS and different concentrations of 16 (0.625, 1.25, 2.5, 5, and 10 μM). Then, 24 h later, images of the same location were obtained using a microscope (Nikon ECLIPSE TE2000-U, Tokyo, Japan). Each experiment was carried out at least three times.

[4] = system: microtubule-associated protein 1 light chain 3 (LC3); experiment: Western blot, LC3-II/LC3-I in HCT-15 cells; format: cell-based, human; details: HCT-15, 0.625, 1.25, 2.5, and 5 μM, p < 0.05
Procedure: (§3) The protein levels in HCT-15 cells were evaluated via Western blot analysis. The cells were cultured in dishes (10^7 cells per dish) and incubated overnight at 37 °C, 0.625, 1.25, 2.5, and 5 μM of 16 was added in triplicate after 24 h of incubation. Then, the cells were harvested and lysed in Laemmli buffer (glycerol, 1M TRIS pH 6.8, 1% SDS, MQ H2O and 20% β-mercaptoethanol). The samples were boiled for 5 min at 95 °C, and the protein content was determined using a BCA kit. Equal amounts of 30 μg of sample were placed on a Tris/HCl gel and separated by SDS-PAGE electrophoresis. Then, the samples were transferred to a PVDF membrane (Milibo, Co., Ltd., Billyka, MA, USA) and blocked with 5% skimmed milk powder for 2 h. Diluted primary antibodies Bcl-2 (1:3000), Bax (1:10,000), caspase-3 (l:2000), p62 (1:1000), Beclin1 (1:1000), LC3 (1:2000), and β-actin (1:1000) were incubated overnight at 4 °C, followed by a horseradish peroxidase-conjugated goat anti-rabbit IgG secondary antibody (ProteinTech, China) for 2 h at room temperature. Then, immunoreactivity was developed with diaminobenzidine solution, and scanned and recorded by a gel imaging system (G:BOX Chemi XL1.4, Frederick, MD, USA).

[5] = system: human pancreatic cancer cells (BxPC-3); experiment: MTT antiproliferative assay, BxPC-3; format: cell-based
Procedure: as §1, §2

[6] = system: HCT-15 cells; experiment: Flow cytometry Annexin V-FITC/PI apoptosis analysis; format: cell-based, human; details: 48 h
Procedure: HCT-15 cells were cultured in complete medium in six-well plates for 24 h, and […]. 2.5, 5 μM of 16 was added in triplicate for 48 h incubation. The cells were digested with trypsin without EDTA, washed twice with cold PBS, and resuspended in 500 μL binding buffer. The cell suspension was stained successively with 5 μL Annexin V-FITC and 5 μL PI (Keygen Biotech, Nanjing, China), and cultured for 15 min and 5 min in total dark, respectively. Afterwards, the percentages of apoptotic cells were determined by a flow cytometry. Data were analyzed by FlowJo software (Version 10, FlowJo, LLC, Ashland, OR, USA).

[7] = system: caspase-3; experiment: Western blot, caspase-3 in HCT-15 cells; format: cell-based, human; details: HCT-15, 0.625, 1.25, and 2.5 μM, p < 0.05, no concentration dependence
Procedure: as §3

[8] = Live/dead FDA/PI double staining, HUVEC; format: cell-based; details: human, HUVEC cells, read-out: Viable cell percentage
Procedure: HCT-15 or HUVEC cells were cultured in six-well plates for 24 h. The cells were washed with PBS and incubated with medium containing 0.625, 1.25, 2.5, 5, and 10 μM of 16 for 48 h. Afterwards, the medium was replaced, and the cells were washed twice with PBS, resuspended in the solution containing 100 μL FDA (0.02 mg/mL, Sigma, St. Louis, MO, USA) and 30 μL PI (0.02 mg/mL, Sigma, St. Louis, MO, USA), and treated in the dark at room temperature for 10 min. The cells were imaged with a fluorescence microscope (Nikon ECLIPSE TE2000-U, Tokyo, Japan).

[9] = system: human normal hepatocyte cells (L-02); experiment: MTT toxicity assay, normal hepatocytes L-02; format: cell-based; details: 72 h, normal hepatocyte L-02 (toxicity), read-out: Antiproliferative Activity (IC50/μM) L-02
Procedure: as §1, §2

COc1cc(NC(=O)[C@@H]2CCCN2)c2cc1Oc1ccc(cc1)C[C@H]1c3cc(c(OC)cc3CCN1C)Oc1c(OC)c(OC)cc3c1[C@H](C2)N(C)CC3 [Compound 16, 14-N-(L-proline)-tetrandrine]
IC50 ([1]; 72 h): 1.46 ± 0.13 µM | IC50 ([1]; Homo sapiens, MCF7, 72 h): < 1.5 µM | IC50 [2]: 1.48 ± 0.01 µM | Scratched area covered (migration rate) ([3]; HCT-15, 5 μM): 14.1% | Scratched area covered (migration rate) ([3]; HCT-15, 10 μM): 10.5% | Ratio of LC3-II to LC3-I [4]: increased | IC50 ([5]; 72 h): 1.12 ± 0.1 µM | IC50 ([5]; Homo sapiens, BXPC-3, 72 h): < 1.5 µM | Apoptotic rate ([6]; HCT-15, 2.5 μM): 25.4% | Apoptotic rate ([6]; HCT-15, 5 μM): 52.7% | Necrotic rate ([6]; HCT-15, 5 μM): 35.5% | Caspase-3 level [7]: significantly decreased | viability at 48 h, 5 µM ([8]; 5 μM): 1.9% | viability at 48 h, 10 µM ([8]; 10 μM): 0.1% | IC50 [9]: > 20 µM
